Data: US20240174618A1, “SUBSTITUTED (2-HETEROARYLOXYPHENYL)SULFONATES, SALTS THEREOF AND THEIR USE AS HERBICIDAL AGENTS” (Bayer Aktiengesellschaft, priority 2021, published 2024)

Legend:
Format in all cases: in vivo
Poa annua (POAAN) = assay: A. Herbicidal pre-emergence efficacy, POAAN
Procedure, shortened: (§1)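 Applied before emergence onto covering soil at rates of 1280 g/ha or less, using 600 L/ha spray water with 0.5% additive. Scoring: visual % efficacy after ~3 weeks, greenhouse.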

Setaria viridis (SETVI) = assay: A. Herbicidal pre-emergence efficacy, SETVI
Procedure, shortened: as §1

[1] = test system: Abutilon theophrasti (ABUTH); assay: B. Herbicidal post-emergence efficacy, ABUTH; conditions: rated visually after about 3 weeks
Procedure, shortened: (§2)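 Post-emergence greenhouse test: one-leaf-stage plants, compound (WP/EC, +0.5% additive, 600 L/ha water, ≤1280 g/ha) applied to green parts; % efficacy scored visually vs untreated after ~3 wk; 100% = plants died.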

[2] = test system: Digitaria sanguinalis (DIGSA); assay: B. Herbicidal post-emergence efficacy, DIGSA; conditions: rated visually after about 3 weeks
Procedure, shortened: as §2

[3] = test system: Amaranthus retroflexus (AMARE); assay: B. Herbicidal post-emergence efficacy, AMARE
Procedure, shortened: as §2

Viola tricolor (VIOTR) = assay: C. Herbicidal pre-emergence efficacy, VIOTR
Procedure, shortened: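 Pre-emergence test: formulated compounds sprayed as aqueous suspension or emulsion with 0.5% additive at 600 l/ha onto soil covering sown seeds, at rates corresponding to 320 g/ha or less. After about 3 weeks in greenhouse, efficacy scored visually as percent versus untreated controls (100% = plants dead).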

Veronica persica (VERPE) = assay: E. Herbicidal post-emergence efficacy, VERPE
Procedure, shortened: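 Visual scoring against untreated plants was done roughly 3 weeks after spraying (0% = no effect, 100% = plants dead). Spray application at 320 g/ha or lower, 600 l/ha water with 0.5% additive, was made onto green parts of one-leaf-stage greenhouse plants grown 2-3 weeks in sandy loam.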

SMILES	Pre-emergence efficacy against POAAN (Poa annua (POAAN); dosage 80 g/ha) [%]	Pre-emergence efficacy against POAAN (Poa annua (POAAN); dosage 320 g/ha) [%]	Pre-emergence efficacy against POAAN (Poa annua (POAAN); dosage 1280 g/ha) [%]	Pre-emergence efficacy against SETVI (Setaria viridis (SETVI); dosage 80 g/ha) [%]	Pre-emergence efficacy against SETVI (Setaria viridis (SETVI); dosage 320 g/ha) [%]	Pre-emergence efficacy against SETVI (Setaria viridis (SETVI); dosage 1280 g/ha) [%]	Post-emergence efficacy against ABUTH in % ([1]; 320 g/ha) [%]	Post-emergence efficacy against ABUTH in % ([1]; 1280 g/ha) [%]	Post-emergence efficacy against DIGSA in % ([2]; 1280 g/ha) [%]	Post-emergence efficacy against AMARE ([3]; 80 g/ha) [%]	Post-emergence efficacy against AMARE ([3]; 320 g/ha) [%]	Post-emergence efficacy against AMARE ([3]; 1280 g/ha) [%]	Pre-emergence efficacy against VIOTR in % (Viola tricolor (VIOTR); application rate 320 g/ha) [%]	Post-emergence efficacy against VERPE in % (Veronica persica (VERPE); application rate 80 g/ha) [%]	Post-emergence efficacy against VERPE in % (Veronica persica (VERPE); application rate 320 g/ha) [%]	Post-emergence efficacy against ABUTH in % ([1]; 80 g/ha) [%]	Post-emergence efficacy against DIGSA in % ([2]; 320 g/ha) [%]	Pre-emergence efficacy against VIOTR in % (Viola tricolor (VIOTR); application rate 80 g/ha) [%]
C=CCCS(=O)(=O)Oc1c(F)cccc1Oc1ncc(Cl)cn1 [Example I-50]	90	90	100	90	90	100	90	90	90	90	90	100	90	90	100	–	–	–
O=S(=O)(CCCC(F)F)Oc1c(F)cccc1Oc1ncc(Cl)cn1 [Example I-56]	90	100	100	100	100	100	90	90	90	90	90	90	100	100	100	90	90	100
O=S(=O)(CC1CC1)Oc1ccccc1Oc1ncc(Cl)cn1 [Example I-23]	90	90	90	–	–	100	90	100	100	100	100	100	100	90	100	–	90	100
O=S(=O)(CCCC(F)(F)F)Oc1c(Cl)cccc1Oc1ncc(Br)cn1 [Example I-34]	–	90	90	90	90	100	100	100	100	100	100	100	100	100	100	90	–	100
O=S(=O)(CCCC(F)(F)C(F)(F)F)Oc1c(F)cccc1Oc1ncc(Cl)cn1 [Example I-68]	–	90	100	90	100	100	100	100	100	100	100	100	100	100	100	100	90	100
CCCCCS(=O)(=O)Oc1ccccc1Oc1ncc(Cl)cn1 [Example I-24]	–	100	100	–	100	100	90	90	90	90	100	100	80	90	100	–	90	80
CC(C)CCS(=O)(=O)Oc1ccccc1Oc1ncc(Cl)cn1 [Example I-25]	–	100	100	–	100	100	90	100	100	90	100	100	100	90	100	–	90	90
O=S(=O)(CCCC(F)(F)F)Oc1c(Cl)cccc1Oc1ncc(Cl)cn1 [Example I-39]	–	100	100	90	100	100	–	90	90	–	90	90	100	100	100	–	–	100
O=S(=O)(CCCC(F)(F)F)Oc1c(F)cccc1Oc1ncc(Cl)cn1 [Example I-49]	90	100	100	90	100	100	90	90	90	90	90	100	100	100	100	90	90	100
O=S(=O)(CCC(F)(F)F)Oc1c(F)cccc1Oc1ncc(Br)cn1 [Example I-40]	100	100	100	100	100	100	–	–	90	–	90	90	100	100	100	–	90	100
O=S(=O)(CCC(F)(F)F)Oc1c(Cl)cccc1Oc1ncc(Cl)cn1 [Example I-38]	–	100	100	90	100	100	–	–	90	–	–	90	100	100	100	–	–	100
